Results on 1 compound are retold here after US20180312886A1, “MICROBIAL PRODUCTION OF CHEMICAL PRODUCTS AND RELATED COMPOSITIONS, METHODS AND SYSTEMS” (CARGILL INCORPORATED, priority 2014, published 2018).

In test [1] the test system is fatty acid synthase system. In kind it is cell-based, E. coli.
The target of test [2] is KASI ketoacyl-ACP synthase (e.g., fabB in E. coli) (Escherichia coli, UniProt P0A953). The settings on record: KX3_0001, fed-batch medium, 24 h.
Chain of KASI ketoacyl-ACP synthase (e.g., fabB in E. coli) (P0A953 whole entry): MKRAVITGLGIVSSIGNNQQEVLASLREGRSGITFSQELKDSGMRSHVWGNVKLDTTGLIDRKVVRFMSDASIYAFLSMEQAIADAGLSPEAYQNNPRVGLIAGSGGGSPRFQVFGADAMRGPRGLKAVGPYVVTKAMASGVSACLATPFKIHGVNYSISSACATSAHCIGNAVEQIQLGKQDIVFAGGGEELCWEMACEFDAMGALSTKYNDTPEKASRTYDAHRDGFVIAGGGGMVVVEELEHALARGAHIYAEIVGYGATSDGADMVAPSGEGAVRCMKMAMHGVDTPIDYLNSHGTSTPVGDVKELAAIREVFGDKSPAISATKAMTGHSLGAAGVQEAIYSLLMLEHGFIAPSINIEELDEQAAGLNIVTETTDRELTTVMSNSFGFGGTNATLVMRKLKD
Protocol: Cultures were started from freezer stocks by standard practice (Sambrook and Russell, 2001) into 50 mL of LB media plus 100 μg/mL ampicillin and grown to stationary phase overnight at 37° C. with rotation at 225 rpm. Five ml of this culture were transferred to 100 ml of fed-batch or AM2 media plus 40 g/L glucose, 100 kg/ml ampicillin, 1 mM IPTG in triplicate 250-ml baffled flasks, and incubated at 37° C., 225 rpm. […] Dry cell weight (DCW) is calculated as 0.33 times the measured OD600 value, based on baseline DCW to OD600 determinations. All data are the average of triplicate cultures.

As to `C/C=C/C/C=C/CCC(=O)[C@H]1O[C@H]1C(N)=O` [cerulenin], the “increase in specific productivity relative to the results without cerulenin” value in test [1] (BX3_0206, SM3 medium, 24 hours) was “approximately 40 fold”; in test [2], 31 fold. This compound gave a 3HP in test [1] (strain BX3_0194, SM3 medium, cerulenin, 4 hr) of 0.003 gIL.
